Experiment [1] concerns the target EGFR A763_Y764insFHEA (Homo sapiens (Human), UniProt P00533, INS763FHEA). Description: HTRF inhibitory activity against EGFR mutant enzyme (EGFR A763_Y764insFHEA). Conditions: recombinant enzyme, 37° C. for 2 hours. Format: biochemical. The essentials:
(§1)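 Recombinant EGFR del19 or A763_Y764insFHEA was premixed with compound in 50 mM Tris pH 7.5 with 7.5 mM MgCl2 and 1 mM DTT. ATP (50 mM as printed) and biotin-peptide (0.5 mM) were added and reacted 2 h at 37 °C. The HTRF 665/615 read used streptavidin-XL665 and Eu anti-phosphotyrosine. IC50 was fitted from 7 concentrations.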
A general note: TR-FRET usually uses a lanthanide donor and a delayed reading to cut background.

For experiment [2], the system named is Ba/F3 HER2 G776delinsVC. The experiment is described as follows: Growth inhibition of Ba/F3 HER2 mutant cells (CellTiter-Glo). It counts as cell-based. The conditions noted are these: Mus musculus, BaF3, 72 hours. The protocol: (§2) The activity of the compounds of the present invention against Ba/F3 HER2 A775_G776insYVMA and Ba/F3 HER2 G776delinsVC mutant cell lines was measured using the CellTiter-Glo system purchased from Promega as follows. CellTiter-Glo assay is a method to measure cell viability by monitoring ATP present in cells. Ba/F3 HER2 A775_G776insYVMA and Ba/F3 HER2 G776delinsVC mutant cell lines were purchased from Crown Biosciences. Ba/F3 HER2 A775_G776insYVMA and Ba/F3 HER2 G776delinsVC mutant cell lines were cultured in RPMI containing 10% FBS and 1% penicillin-streptomycin with 1 μg/mL of puromycin in a CO2 incubator at 37° C.
(§3) The analysis of the ability of the compounds to inhibit the growth of HER2 mutant cells was performed according to the following method. 1,000 cells/100 μL were seeded in a 96-well cell culture plate, and 24 hours thereafter, the compounds represented by Formula 1 were treated with 0 μM, 0.01 μM, 0.03 μM, 0.1 μM, 0.3 μM, 1 μM, 3 μM, and 10 μM. After reacting for 72 hours, the plate treated with the compounds were left at room temperature for 30 minutes, 100 μL of a reagent was added thereto, and then shaken at room temperature for 10 minutes. Finally, using equipment, the ratio of […] was measured to confirm the cell growth inhibition ability of the compounds. The measured values at 8 compound concentrations were analyzed using the Prism program (version 5.01, Graphpad Software, Inc.), and the IC50 (μM) values, which are measures of the compounds' inhibitory ability, were calculated.
Background: ATP-based viability assays read luminescence as a measure of living cells.

The subject of experiment [3] is Ba/F3 HER2 A775_G776insYVMA. Described as above. The conditions noted are these: Mus musculus, BaF3, 72 hours. It counts as cell-based. The protocol:
as §2, §3

Experiment [4] addresses EGFR del19 (Homo sapiens (Human), UniProt P00533, DEL746-750). Description: HTRF inhibitory activity against EGFR mutant enzyme (EGFR del19). Format: biochemical. Conditions: recombinant enzyme, 37° C. for 2 hours. The essentials: as §1
Experiment [5] concerns the target HER2 A775_G776insYVMA (Homo sapiens (Human), UniProt P04626, INS775YVMA). The experiment is described as follows: HTRF inhibitory activity against HER2 mutant enzyme. Format: biochemical. Conditions: recombinant enzyme, 37° C. for 2 hours. The essentials: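 Recombinant HER2 A775_G776insYVMA preincubated with compound, then […] and biotinylated peptide ([…]) added; 2 h at 37 °C in Tris-HCl pH 7.5 buffer with MgCl2, DTT. HTRF detection (Eu anti-phosphotyrosine/streptavidin-XL665); IC50 from 7 concentrations.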

Experiment [6] relates to Ba/F3 EGFR V769_D770insASV. Description: Growth inhibition of Ba/F3 EGFR mutant cells (CellTiter-Glo). It counts as cell-based. Conditions: 72 hours. The protocol:
(§4) The activity of the compounds of the present invention against Ba/F3 EGFR V769_D770insASV and Ba/F3 EGFR D770_N771insSVD mutant cell lines was measured using the CellTiter-Glo system purchased from Promega as follows. CellTiter-Glo assay is a method to measure cell viability by monitoring ATP present in cells. Ba/F3 EGFR V769_D770insASV and Ba/F3 EGFR D770_N771insSVD mutant cell lines were purchased from Crown Biosciences. Ba/F3 EGFR V769_D770insASV and Ba/F3 EGFR D770_N771insSVD mutant cell lines were cultured in RPMI containing 10% FBS and 1% penicillin-streptomycin with 1 μg/mL of puromycin in a 5% CO2 incubator at 37° C.
as §3, with “growth of EGFR mutant cells” for “growth of HER2 mutant cells”, “μM. After incubating for 72” for “μM. After reacting for 72”, “reagent was further added thereto,” for “reagent was added thereto,”

Experiment [7] relates to Ba/F3 EGFR D770_N771insSVD. The experiment is described as above. Format: cell-based. The conditions noted are these: Ba/F3 EGFR-D770-N771ins_SVD, 72 hours. The procedure: as §4
as §3, with “growth of EGFR mutant cells” for “growth of HER2 mutant cells”, “μM. After incubating for 72” for “μM. After reacting for 72”, “reagent was further added thereto,” for “reagent was added thereto,”

Drawing on US20240343694A1, “PYRIMIDINE DERIVATIVE, METHOD FOR PREPARING SAME, AND PHARMACEUTICAL COMPOSITION FOR PREVENTING OR TREATING CANCER COMPRISING SAME AS ACTIVE INGREDIENT” (KOREA RESERARCH INSTITUTE OF CHEMICAL TECHNOLOGY, priority 2021, published 2024), this text covers IC50 for eleven compounds.

A word on the IC50: it is the concentration at which inhibition is half-maximal.

SMILES strings stand for the structures.

Chain of HER2 A775_G776insYVMA (P04626 other isoform, or with tags, fused parts or gaps del 1-675/ins YVMA behind 775 limits assumed): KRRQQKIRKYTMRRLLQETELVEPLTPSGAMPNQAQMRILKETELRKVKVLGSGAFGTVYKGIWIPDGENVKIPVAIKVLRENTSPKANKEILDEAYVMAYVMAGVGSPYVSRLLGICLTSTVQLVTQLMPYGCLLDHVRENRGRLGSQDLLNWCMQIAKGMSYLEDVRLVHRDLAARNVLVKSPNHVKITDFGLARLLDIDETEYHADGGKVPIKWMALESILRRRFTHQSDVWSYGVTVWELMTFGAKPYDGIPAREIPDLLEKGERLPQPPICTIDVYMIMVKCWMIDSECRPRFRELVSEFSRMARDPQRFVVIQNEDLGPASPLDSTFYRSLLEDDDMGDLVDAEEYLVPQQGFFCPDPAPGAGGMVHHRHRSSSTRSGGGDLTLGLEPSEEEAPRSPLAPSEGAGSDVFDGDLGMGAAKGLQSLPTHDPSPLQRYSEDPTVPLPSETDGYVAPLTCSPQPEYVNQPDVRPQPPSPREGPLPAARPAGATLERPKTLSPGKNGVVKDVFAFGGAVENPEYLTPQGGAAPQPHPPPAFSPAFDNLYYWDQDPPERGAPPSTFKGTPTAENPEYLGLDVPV
Chain of EGFR A763_Y764insFHEA (P00533 other isoform, or with tags, fused parts or gaps del 1-694/ins FHEA behind 763 limits assumed): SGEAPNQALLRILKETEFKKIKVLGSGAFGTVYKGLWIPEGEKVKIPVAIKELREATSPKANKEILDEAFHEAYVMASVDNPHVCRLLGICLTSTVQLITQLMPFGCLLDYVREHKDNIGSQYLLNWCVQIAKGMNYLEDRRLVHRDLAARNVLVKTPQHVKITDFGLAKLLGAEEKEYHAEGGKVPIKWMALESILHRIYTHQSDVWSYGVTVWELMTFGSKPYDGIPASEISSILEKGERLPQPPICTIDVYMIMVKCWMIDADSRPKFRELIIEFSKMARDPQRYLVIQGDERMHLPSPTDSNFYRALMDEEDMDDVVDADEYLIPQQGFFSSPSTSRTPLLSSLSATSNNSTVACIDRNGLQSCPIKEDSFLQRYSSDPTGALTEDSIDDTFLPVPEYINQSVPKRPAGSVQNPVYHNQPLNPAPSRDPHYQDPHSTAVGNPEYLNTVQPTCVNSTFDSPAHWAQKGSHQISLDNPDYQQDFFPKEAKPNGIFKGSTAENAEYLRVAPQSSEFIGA
Chain of EGFR del19 (P00533 other isoform, or with tags, fused parts or gaps del 1-668/del 746-750 limits assumed): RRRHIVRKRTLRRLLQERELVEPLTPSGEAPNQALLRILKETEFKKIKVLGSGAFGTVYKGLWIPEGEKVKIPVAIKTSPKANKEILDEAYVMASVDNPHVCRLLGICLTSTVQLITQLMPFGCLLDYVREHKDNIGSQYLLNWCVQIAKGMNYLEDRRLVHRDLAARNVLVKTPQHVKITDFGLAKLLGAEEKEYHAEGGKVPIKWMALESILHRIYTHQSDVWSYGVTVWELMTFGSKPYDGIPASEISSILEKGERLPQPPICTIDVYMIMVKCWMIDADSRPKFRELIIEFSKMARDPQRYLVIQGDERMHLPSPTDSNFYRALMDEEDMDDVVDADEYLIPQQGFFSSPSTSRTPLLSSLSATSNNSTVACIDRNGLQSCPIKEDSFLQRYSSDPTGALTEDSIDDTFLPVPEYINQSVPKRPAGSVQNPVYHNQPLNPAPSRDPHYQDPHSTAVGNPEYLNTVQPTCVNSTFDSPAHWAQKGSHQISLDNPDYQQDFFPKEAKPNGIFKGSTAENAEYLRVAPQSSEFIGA

With `C=CC(=O)Nc1cc(Nc2ncc(Cl)c(Nc3ccccc3NS(=O)(=O)CC)n2)c(OC)cc1N(C)CCN(C)C` [Example 4, N-(5-((5-chloro-4-((2-(ethylsulfonamido)phenyl)amino)pyrimidin-2-yl)amino)-2-((2-(dimethylamino)ethyl)(methyl)amino)-4-methoxyphenyl)acrylamide], the IC50 in experiment [1] was 2 nM; in experiment [2] it was 10 to 30 nM; in experiment [3], greater than 100 nM; in experiment [4], less than 1 nM; in experiment [5], 37 nM; in experiment [6] it was 10 to 30 nM.
Take `C=CC(=O)Nc1cc(Nc2ncc(Cl)c(Nc3ccccc3NS(C)(=O)=O)n2)c(OC)cc1OCCN1CCCC1` [Example 22, N-(5-((5-chloro-4-((2-(methylsulfonamido)phenyl)amino)pyrimidin-2-yl)amino)-4-methoxy-2-(2-(pyrrolidin-1-yl)ethoxy)phenyl)acrylamide]: the half-inhibitory concentration (IC50) in experiment [1] is 3 nM; in experiment [2] it was 10 to 30 nM; in experiment [3] it was greater than 100 nM; in experiment [4] it was less than 1 nM; in experiment [5], 22 nM; in experiment [7], greater than 100 nM. In experiment [6], this compound returned an IC50 greater than 100 nM.
Turning to `C=CC(=O)Nc1cc(Nc2ncc(Cl)c(Nc3ccccc3NS(C)(=O)=O)n2)c(OC)cc1N(C)CCNC(C)C` [Example 24, N-(5-((5-chloro-4-((2-(methylsulfonamido)phenyl)amino)pyrimidin-2-yl)amino)-2-((2-(isopropylamino)ethyl)(methyl)amino)-4-methoxyphenyl)acrylamide], the half-maximal inhibitory concentration (IC50) was 3 nM in experiment [1]; 10 to 30 nM in experiment [2]; greater than 100 nM in experiment [3]; less than 1 nM in experiment [4]; 27 nM in experiment [5]; greater than 100 nM in experiment [7]. In addition, the IC50 in experiment [6] was greater than 100 nM.
Take `C=CC(=O)Nc1cc(Nc2ncc(Cl)c(Nc3ccccc3NS(C)(=O)=O)n2)c(OC)cc1N(C)CCNC` [Example 25, N-(5-((5-chloro-4-((2-(methylsulfonamido)phenyl)amino)pyrimidin-2-yl)amino)-4-methoxy-2-(methyl(2-(methylamino)ethyl)amino)phenyl)acrylamide]: the half-inhibitory concentration (IC50) is less than 1 nM in experiment [1]; greater than 100 nM in experiment [2]; greater than 100 nM in experiment [3]; less than 1 nM in experiment [4]; 6 nM in experiment [5]; greater than 100 nM in experiment [7]. In experiment [6], this compound gave a 50% inhibitory concentration (IC50) greater than 100 nM.
With `C=CC(=O)Nc1cc(Nc2ncc(Cl)c(Nc3ccccc3N(C)S(C)(=O)=O)n2)c(OC)cc1N(C)CCN(C)C` [Example 29, N-(5-((5-chloro-4-((2-(N-methylmethylsulfonamido)phenyl)amino)pyrimidin-2-yl)amino)-2-((2-(dimethylamino)ethyl)(methyl)amino)-4-methoxyphenyl)acrylamide], the 50% inhibitory concentration (IC50) in experiment [1] is less than 1 nM; in experiment [2], 10 to 30 nM; in experiment [3], 50 to 100 nM; in experiment [4] it was less than 1 nM; in experiment [5], 5 nM; in experiment [7], 10 to 30 nM. Moreover, the concentration for half-maximal inhibition (IC50) in experiment [6] was in the range of 10 to 30 nM.
As to `C=CC(=O)Nc1cc(Nc2ncc(Cl)c(Nc3ccccc3N(C)S(=O)(=O)CC)n2)c(OC)cc1N(C)CCN(C)C` [Example 30, N-(5-((5-chloro-4-((2-(N-methylethylsulfonamido)phenyl)amino)pyrimidin-2-yl)amino)-2-((2-(dimethylamino)ethyl)(methyl)amino)-4-methoxyphenyl)acrylamide], the IC50 is less than 1 nM in experiment [1]; less than 10 nM in experiment [2]; 30 to 50 nM in experiment [3]; less than 1 nM in experiment [4]; 4 nM in experiment [5]; 30 to 50 nM in experiment [7]. The same compound displayed an IC50 in experiment [6] of less than 10 nM.
With `C=CC(=O)Nc1cc(Nc2ncc(Cl)c(Nc3ccccc3N(CC)S(C)(=O)=O)n2)c(OC)cc1N(C)CCN(C)C` [Example 31, N-(5-((5-chloro-4-((2-(N-ethylmethylsulfonamido)phenyl)amino)pyrimidin-2-yl)amino)-2-((2-(dimethylamino)ethyl)(methyl)amino)-4-methoxyphenyl)acrylamide], the IC50 in experiment [1] is less than 1 nM; in experiment [2] it was less than 10 nM; in experiment [3], less than 10 nM; in experiment [4], less than 1 nM; in experiment [5] it was 0.3 nM; in experiment [7] it was 30 to 50 nM. The IC50 in experiment [6] is less than 10 nM.
Consider `C=CC(=O)Nc1cc(Nc2ncc(Cl)c(Nc3ccccc3N(C(C)C)S(C)(=O)=O)n2)c(OC)cc1N(C)CCN(C)C` [Example 32, N-(5-((5-chloro-4-((2-(N-isopropylmethylsulfonamido)phenyl)amino)pyrimidin-2-yl)amino)-2-((2-(dimethylamino)ethyl)(methyl)amino)-4-methoxyphenyl)acrylamide], for which the IC50 is 1 nM in experiment [1]; less than 10 nM in experiment [2]; 30 to 50 nM in experiment [3]; less than 1 nM in experiment [4]; 8 nM in experiment [5]; 30 to 50 nM in experiment [7]. In experiment [6], this compound came in with an IC50 of 30 to 50 nM.
Take `C=CC(=O)Nc1cc(Nc2ncc(Cl)c(Nc3ccccc3N(CC)S(=O)(=O)CC)n2)c(OC)cc1N(C)CCN(C)C` [Example 33, N-(5-((5-chloro-4-((2-(N-ethylethylsulfonamido)phenyl)amino)pyrimidin-2-yl)amino)-2-((2-(dimethylamino)ethyl)(methyl)amino)-4-methoxyphenyl)acrylamide]: the half-inhibitory concentration (IC50) in experiment [1] is less than 1 nM; in experiment [2], less than 10 nM; in experiment [3], 30 to 50 nM; in experiment [4], less than 1 nM; in experiment [5], 7 nM; in experiment [7], 30 to 50 nM. For the same compound, the IC50 in experiment [6] was less than 10 nM.
In the case of `C=CC(=O)Nc1cc(Nc2ncc(Cl)c(Nc3cccc(Cl)c3N(C)S(C)(=O)=O)n2)c(OC)cc1N(C)CCN(C)C` [Example 35, N-(5-((5-chloro-4-((3-chloro-2-(N-methylmethylsulfonamido)phenyl)amino)pyrimidin-2-yl)amino)-2-((2-(dimethylamino)ethyl)(methyl)amino)-4-methoxyphenyl)acrylamide], the IC50 in experiment [1] is 3 nM; in experiment [2], less than 10 nM; in experiment [3] it was 50 to 100 nM; in experiment [4], less than 1 nM; in experiment [5], 27 nM; in experiment [7] it was 30 to 50 nM. This compound also showed an IC50 in experiment [6] of 30 to 50 nM.
`C=CC(=O)Nc1cc(Nc2ncc(F)c(Nc3cccc4c3N(C(C)=O)CC4)n2)c(OC)cc1N(C)CCN(C)C` [Example 101, N-(5-((4-((1-acetylindolin-7-yl)amino)-5-fluoropyrimidin-2-yl)amino)-2-((2-(dimethylamino)ethyl)(methyl)amino)-4-methoxyphenyl)acrylamide]: the IC50 is 5 nM in experiment [1]; less than 10 nM in experiment [2]; 50 to 100 nM in experiment [3]; 1 nM in experiment [4]; 30 to 50 nM in experiment [7]; 10 to 30 nM in experiment [6].
